Test results reported in article PMC12362585, “Development and Preclinical Characterization of [^18F]H3-2406 and [^18F]H3-2407 for Positron Emission Tomography Imaging of the Histamine Subtype‑3 Receptor” (Journal of Medicinal Chemistry, 2025).

Assays:
H3R [1] = target: T1, H3R (Homo sapiens, UniProt Q9Y5N1); assay: H3R competitive radioligand binding assay using [^3H]AZ13582963; conditions: competitive binding vs [^3H]AZ13582963; for Ki: read-out: H3R K i
T1 construct: Gifford Bioscience (contract laboratory that ran the assay)
T1 sequence (Q9Y5N1 whole entry, species assumed): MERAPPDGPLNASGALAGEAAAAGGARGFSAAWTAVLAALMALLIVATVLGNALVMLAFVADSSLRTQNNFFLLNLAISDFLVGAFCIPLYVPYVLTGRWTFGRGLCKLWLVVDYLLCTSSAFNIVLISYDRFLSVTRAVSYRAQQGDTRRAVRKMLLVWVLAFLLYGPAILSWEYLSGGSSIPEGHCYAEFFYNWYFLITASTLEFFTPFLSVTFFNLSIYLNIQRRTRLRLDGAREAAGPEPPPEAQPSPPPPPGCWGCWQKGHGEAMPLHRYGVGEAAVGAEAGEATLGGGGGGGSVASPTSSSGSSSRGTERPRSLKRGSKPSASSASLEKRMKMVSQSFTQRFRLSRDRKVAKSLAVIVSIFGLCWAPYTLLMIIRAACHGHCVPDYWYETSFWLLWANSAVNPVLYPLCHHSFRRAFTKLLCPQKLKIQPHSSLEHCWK

[2] = Log D by shake-flask method; type: physicochemical; conditions: n-octanol/PBS
Method: To evaluate the binding affinities of compounds 1–9, competitive radioligand binding assays were conducted using [^3H]-AZ13582963 [4-(1S,2S)-2-(4-cyclobutylpiperazine-1-carbonyl)-cyclopropyl)-N-methyl-[2-^3 H]-benzamide]. […]. […]. Further, ACD Percepta predictions indicated these compounds are likely to cross the blood-brain barrier (BBB), as indicated by a log BB > −1 and a multiparameter optimization (MPO) score >4.0. High selectivity toward H3R over other CNS targets is essential for effective H3R PET imaging. Therefore, off-target screenings of compounds 2, 3, and 4 were conducted against various CNS receptors, G protein-coupled receptors (GPCRs), transporters, and ion channels at 10 μM (Figure S1). […]. Sigma-1 receptors, crucial for ion channel function and associated with learning, memory, and pain, , have shown synergy with H3R antagonists, including PF-03654746 and ABT-239, potentially enhancing in vivo efficacy.
The lipophilicity was measured according to previously reported methods. , In brief, PBS and n-octanol were premixed prior to the experiment. A solution containing 0.2 MBq of [^18F]3 or [^18F]4, PBS (3 mL) and n-octanol (3 mL) were prepared in a vial and vortexed for 5 min. The PBS and n-octanol layers were then separated and transferred into a centrifuge tube, followed centrifugation at 12,000 rpm for 5 min. Then PBS (0.5 mL) and n-octanol (0.05 mL) were weight and measured the radioactivity on a γ counter (PerkinElmer Wizard). The Log D values of [ ^18F]3 and [^18F]4 were calculated using the following formula: LogD=Log[(radioactivityn‐octanol/weightn‐octanol)/(radioactivityPBS/weightPBS)]

sigma-1 receptor [3] = target: T2, sigma-1 receptor (Homo sapiens, UniProt Q99720); assay: sigma 1 binding assay; conditions: for Ki: read-out: sigma-1 K i; for selectivity of H3R over sigma-1: ratio of sigma-1 K i to H3R K i
T2 sequence (Q99720 whole entry, species assumed): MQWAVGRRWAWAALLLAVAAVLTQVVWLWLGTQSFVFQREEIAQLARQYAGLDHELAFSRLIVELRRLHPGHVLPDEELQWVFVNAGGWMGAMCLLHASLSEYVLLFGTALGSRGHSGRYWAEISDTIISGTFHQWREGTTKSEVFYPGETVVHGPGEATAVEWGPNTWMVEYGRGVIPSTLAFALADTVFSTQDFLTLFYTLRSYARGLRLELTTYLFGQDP

sigma-1 receptor [4] = target: T2, sigma-1 receptor; assay: Off-target screening at 10 μM, sigma-1; type: binding
5-HT2C [5] = target: T3, 5-HT2C (Homo sapiens, UniProt P28335); assay: 5HT2C binding assay; conditions: read-out: 5-HT2C K i
T3 sequence (P28335 33-458): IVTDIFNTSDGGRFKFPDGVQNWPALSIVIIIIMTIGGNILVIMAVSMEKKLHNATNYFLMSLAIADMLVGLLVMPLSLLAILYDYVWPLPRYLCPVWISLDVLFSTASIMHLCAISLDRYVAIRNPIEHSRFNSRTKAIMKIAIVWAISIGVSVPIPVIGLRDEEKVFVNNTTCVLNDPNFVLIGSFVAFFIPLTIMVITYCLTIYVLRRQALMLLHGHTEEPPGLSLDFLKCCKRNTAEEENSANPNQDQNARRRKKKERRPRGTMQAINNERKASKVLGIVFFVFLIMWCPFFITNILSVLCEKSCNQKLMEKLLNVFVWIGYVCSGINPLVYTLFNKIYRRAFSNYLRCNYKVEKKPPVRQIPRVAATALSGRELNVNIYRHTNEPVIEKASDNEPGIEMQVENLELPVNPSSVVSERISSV

[6] = tested on: CNS receptors, GPCRs, transporters, and ion channels; assay: Off-target screening panel, CNS target selectivity; type: binding; conditions: H3R against most CNS targets
[7] = target: 5-hydroxytryptamine receptor 2A (5-HT2A) (Homo sapiens, UniProt P28223); assay: Off-target screening at 10 μM, 5-HT2A; type: binding; conditions: read-out: inhibition of 5-HT2A
Sequence of 5-hydroxytryptamine receptor 2A (5-HT2A) (P28223 whole entry, species assumed): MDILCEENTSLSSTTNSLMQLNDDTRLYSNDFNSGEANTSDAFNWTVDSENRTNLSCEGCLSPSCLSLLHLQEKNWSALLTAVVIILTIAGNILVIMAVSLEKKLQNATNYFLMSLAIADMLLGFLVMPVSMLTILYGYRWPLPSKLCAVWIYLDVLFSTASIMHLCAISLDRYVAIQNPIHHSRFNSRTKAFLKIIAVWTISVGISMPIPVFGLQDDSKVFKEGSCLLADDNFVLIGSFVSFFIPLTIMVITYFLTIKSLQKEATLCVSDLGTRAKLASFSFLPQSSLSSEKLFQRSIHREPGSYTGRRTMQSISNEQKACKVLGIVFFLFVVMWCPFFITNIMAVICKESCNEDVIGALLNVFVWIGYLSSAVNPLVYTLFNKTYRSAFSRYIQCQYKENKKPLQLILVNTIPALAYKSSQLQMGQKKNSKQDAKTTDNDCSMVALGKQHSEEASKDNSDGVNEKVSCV

H3R [8] = target: T4, H3R (Mus musculus, UniProt P58406); assay: Dynamic PET imaging in CD1 mice, baseline and H3R antagonist blocking; type: in vivo
T4 construct: dynamic PET imaging studies were conducted in CD1 mice; from tissue; host or cells: brain of living CD1 mice
T4 sequence (P58406 whole entry): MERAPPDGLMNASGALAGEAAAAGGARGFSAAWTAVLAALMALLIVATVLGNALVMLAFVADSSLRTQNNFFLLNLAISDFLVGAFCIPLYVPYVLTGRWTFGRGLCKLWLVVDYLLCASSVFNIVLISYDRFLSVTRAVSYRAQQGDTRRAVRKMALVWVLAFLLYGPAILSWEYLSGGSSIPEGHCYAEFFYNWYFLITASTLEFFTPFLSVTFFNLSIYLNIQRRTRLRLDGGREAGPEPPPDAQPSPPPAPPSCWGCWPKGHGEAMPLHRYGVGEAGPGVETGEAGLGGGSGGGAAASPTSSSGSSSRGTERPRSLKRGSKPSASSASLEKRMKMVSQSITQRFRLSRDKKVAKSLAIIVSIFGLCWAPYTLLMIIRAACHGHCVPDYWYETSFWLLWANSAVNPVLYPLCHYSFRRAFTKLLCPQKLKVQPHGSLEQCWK
Method: To elucidate the in vivo brain uptake of [^18F]3 and [^18F]4, dynamic PET imaging studies were conducted in CD1 mice (an outbred strain of immunocompetent mice commonly used for pharmacokinetic and biodistribution studies) for 60 min. The results, which include summed PET images (0–60 min), whole-brain time-activity curves (TACs), and area under the curve (AUC) for both radioligands, are depicted in Figures and . At baseline, [^18F]3 rapidly crossed the BBB following intravenous injection, reaching peak whole-brain uptake with a standardized uptake value (SUV) value of 2.4 at 2.3 min. This was followed by a gradual washout and reached a SUV of 1.87 by 60 min. To evaluate the binding characteristics of [^18F]3, elective H3R antagonists with distinct structural scaffolds, GSK189254, enerisant, and cipralisant, were used as blocking agents. […] Quantification of specific tracer binding was performed using volume of distribution (V T) values, derived from compartmental modeling and an image-derived input function (IDIF). […] While these findings support the utility of [^18F]3 for in vivo studies, we acknowledge the inherent limitations of IDIF, including the lack of metabolite correction and potential inaccuracies in capturing early phase kinetics.
PET imaging was conducted following previously reported methods. CD1 mice (5–6 weeks) were anesthetized with 1.5% (v/v) isoflurane during the scan. A dose of 3.0 MBq of [^18F]3 or [^18F]4 was intravenously injected into the tail vein, and a dynamic scan was acquiring using a PET scanner (MOLECUBES, beta-cube) for 60 min. In the blocking studies, GSK189254 (3 mg/kg) in 0.1 mL of saline containing 5% ethanol and 5% Tween-80 was preinjected for 10 min prior to the injection of PET radioligands. The results were reconstructed and analyzed by PMOD 4.3 software.
Quantification of specific tracer binding was performed using volume of distribution (VT) values, derived from compartmental modeling and an image-derived input […]
significant reduction in H3R-rich brain regions such as the cortex and striatum under blocking conditions with GSK189254, enerisant, and cipralisant, confirming the specificity of [18F]3 binding (Table S1).
Table S1. Estimation of V T values by Logan analysis in mice with [ 18F]3 at baseline, GSK189254-blocking (3 mg/kg), enerisant-blocking (3 mg/kg), and cipralisant-blocking (3 mg/kg) conditions.
Group Baseline GSK189254 Enerisant Cipralisant blocking blocking blocking

H3R [9] = target: T5, H3R (Rattus norvegicus, UniProt Q9QYN8); assay: In vitro autoradiography on rat brain sections; type: binding, SD rat
T5 construct: The brains of SD rat were sectioned into 15 μm slices; from tissue; host or cells: SD rat brain sections
T5 sequence (Q9QYN8 whole entry): as the sequence (P58406 whole entry) above, with A15T, T286A, G290A, H387R, V389I counted along it
Method: To validate the target specificity and selectivity, in vitro autoradiography experiments were conducted using [^18F]3 and [^18F]4 on rat brain sections. […] Furthermore, pretreatment with unlabeled compound 3 (10 μM) led to a signal reduction of over 90% in the brain. […] This discrepancy is likely attributable to additional off-target binding of [^18F]3, which is further supported by high uptake in the cerebellum – a region with low H3R expression. […] The high uptake in the cerebellum may be attributed to nonspecific binding to unidentified CNS targets. […] Nonetheless, the results support further in vivo PET evaluation to better understand their binding profiles and evaluate their potential for H3R imaging – particularly in regions with low sigma-1 abundance.
The ARG was measured according to previously reported methods. , The brains of SD rat were sectioned into 15 μm slices and stored in −80 °C. For each experiment, the brain slices allowed them to warm to room temperature and then incubated in Tris-HCl buffer (50 mM, containing 0.1% bovine serum albumin) for 10 min. The slices were incubated with [^18F]3 or [^18F]4 (0.037 MBq/mL) in the presence of either DMSO (baseline study), GSK189254 (10 μM, blocking study), and unlabeled 3 or 4 (10 μM, blocking study) at room temperature for 30 min. Following incubation, the brain slices were washed three times with cold Tris-HCl buffer (50 mM) for 5 min each, and then dipped in water 2 times for 5 s. The brain slices were dried under cold air and exposed to a Phosphor Screen (BAS IP MS2025, Cytiva) for 2 h. The radioactivity and imaging were captured using an Amersham Typhoon 5 (Cytiva) and the data were analyzed using ImageJ software.

sigma-2 = sigma-2 (Homo sapiens, UniProt Q5BJF2); assay: Off-target screening at 10 μM, sigma-2; type: binding
Sequence of sigma-2 (Q5BJF2 whole entry): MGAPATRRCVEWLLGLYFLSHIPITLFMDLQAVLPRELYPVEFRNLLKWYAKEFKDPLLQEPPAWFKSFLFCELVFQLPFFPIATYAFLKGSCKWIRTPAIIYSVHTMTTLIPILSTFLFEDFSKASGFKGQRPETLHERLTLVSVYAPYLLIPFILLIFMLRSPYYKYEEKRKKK

5-HT2C [10] = target: T3, 5-HT2C; assay: Off-target screening at 10 μM, 5-HT2C; type: binding; conditions: read-out: inhibition of 5-HT2C

| SMILES | Ki (H3R [1]) [nM] | IC50 (H3R [1]) [nM] | logD [2] | Ki (sigma-1 receptor [3]) [nM] | inhibition at 10 µM (sigma-1 receptor [4]) [%] | also measured |
| --- | --- | --- | --- | --- | --- | --- |
| O=C([C@H]1C[C@@H]1c1ccc(F)cc1)N1CCN(C2CCC2)CC1 [Compound 2, (4-Cyclobutylpiperazin-1-yl)((1S,2S)-2-(4-fluorophenyl)cyclopropyl)methanone] |  |  | 2.76 | 1.61 | 98.1 |  |
| O=C([C@H]1C[C@@H]1c1ccc(F)cc1)N1CCN(C2CCCC2)CC1 [Compound 3, (4-Cyclopentylpiperazin-1-yl)((1S,2S)-2-(4-fluorophenyl)cyclopropyl)methanone] |  |  | 2.82 | 199 | 93.2 | Ki (5-HT2C [5]): > 1000 nM; selectivity of H3R over sigma-1 (sigma-1 receptor [3]): 69 fold; CNS target selectivity [6]: over 300 fold; inhibition at 10 µM [7]: 64.5% |
| [11CH3]NC(=O)c1ccc([C@H]2C[C@@H]2C(=O)N2CCN(C3CCC3)CC2)cc1 [AZD13153556, reference compound] |  | 23.5 |  |  |  |  |
| O=C([C@H]1C[C@@H]1c1ccc(F)cc1)N1CCN(C2CCCCCC2)CC1 [Compound 5, (4-Cycloheptylpiperazin-1-yl)((1S,2S)-2-(4-fluorophenyl)cyclopropyl)methanone] | > 1000 | > 1000 |  |  |  |  |
| O=C([C@H]1C[C@@H]1c1ccc([18F])cc1)N1CCN(C2CCCCC2)CC1 [[^18F]4] |  |  | 3.35 |  |  | whole-brain signal reduction based on AUC, GSK189254 blocking (H3R [8]; GSK189254 3 mg/kg, 0–60 min): did not yield a significant reduction; time of peak whole-brain uptake (H3R [8]; baseline, CD1 mice): 4.3 min; whole-brain uptake at 60 min (H3R [8]; baseline, CD1 mice): 1.77 SUV; peak whole-brain uptake (H3R [8]; baseline, intravenous injection, CD1 mice): 1.83 SUV; reduction in whole-brain uptake from peak after 60 min dynamic scan (H3R [8]; baseline, washout): 3.3%; reduction in radioactivity across brain regions, GSK189254 blocking (H3R [9]; GSK189254 10 μM): 38.7–68.2%; signal reduction, self-blocking with unlabeled compound (H3R [9]; unlabeled 3 or 4 at 10 μM): 66.6–78.8% |
| O=C([C@H]1C[C@@H]1c1ccc(F)cc1)N1CCN(C2CCCCC2)CC1 [Compound 4, (4-Cyclohexylpiperazin-1-yl)((1S,2S)-2-(4-fluorophenyl)cyclopropyl)methanone] |  |  | 3.35 | 1280 | 94.4 | Ki (5-HT2C [5]): > 1000 nM; selectivity of H3R over sigma-1 (sigma-1 receptor [3]): 407 fold; CNS target selectivity [6]: over 300 fold; inhibition at 10 µM [7]: 59%; inhibition at 10 µM (sigma-2): 93.6%; inhibition at 10 µM (5-HT2C [10]): 80.3% |

Continued, in another order:

| Ki (H3R [1]) [nM] | IC50 (H3R [1]) [nM] | SMILES | logD [2] | Ki (sigma-1 receptor [3]) [nM] | inhibition at 10 µM (sigma-1 receptor [4]) [%] | also measured |
| --- | --- | --- | --- | --- | --- | --- |
| 10.2 |  | O=C([C@H]1C[C@@H]1c1ccc(-c2ccc([18F])nc2)cc1)N1CCN(C2CCC2)CC1 [[^18F]H3-2404, reference compound] |  |  |  |  |
| > 1000 | > 1000 | O=C([C@H]1C[C@@H]1c1ccc(F)cc1)N1C[C@@H]2C[C@H]1CN2C1CCC1 [Compound 7, ((1S,4S)-5-Cyclobutyl-2,5-diazabicyclo[2.2.1]heptan-2-yl)((1S,2S)-2-(4-fluorophenyl)cyclopropyl)methanone] |  |  |  |  |
| > 1000 | > 1000 | O=C([C@H]1C[C@@H]1c1ccc(F)cc1)N1C[C@@H]2CN(C3CCC3)C[C@@H]2C1 [Compound 8, ((3aR,6aS)-5-Cyclobutylhexahydropyrrolo[3,4-c]pyrrol-2(1H)-yl)((1S,2S)-2-(4-fluorophenyl)cyclopropyl)methanone] |  |  |  |  |
| > 1000 | > 1000 | O=C([C@H]1C[C@@H]1c1ccc(F)cc1)N1CC2(C1)CN(C1CCC1)C2 [Compound 6, (6-Cyclobutyl-2,6-diazaspiro[3.3]heptan-2-yl)((1S,2S)-2-(4-fluorophenyl)cyclopropyl)methanone] |  |  |  |  |
